In general, pIC50 refers to the IC50 on a negative log10 scale, so that one unit is a factor of ten.

pIC50: −log10 of the molar value.

The source of these data is ChEMBL document CHEMBL5725962, “Pyrazolo[1,5-A]PYRAZIN-4-YL derivatives” (2018).

For assay [1], the target named is Tyrosine-protein kinase JAK2 (Homo sapiens, UniProt O60674). The experiment in a line: Reaction mixtures contained 10 mM HEPES, pH 7.4, 10 mM MgCl2, 0.01% BSA, 0.0005% Tween 20, 1 mM ATP and 1 μM peptide substrate. […] Enzyme concentrations and incubation times were optimized for each new enzyme preps and were modified slightly over time to ensure 20% to 30% phosphorylation. The assays were stopped with 15 μL of 180 mM HEPES, pH 7.4, 20 mM EDTA, and 0.2% Coating Reagent 3. The assay plates were placed on a Caliper Life Science LC3000 instrument, and each well was sampled using appropriate separation conditions to measure the unphosphorylated and phosphorylated peptide.
Sequence of Tyrosine-protein kinase JAK2 (O60674 whole entry): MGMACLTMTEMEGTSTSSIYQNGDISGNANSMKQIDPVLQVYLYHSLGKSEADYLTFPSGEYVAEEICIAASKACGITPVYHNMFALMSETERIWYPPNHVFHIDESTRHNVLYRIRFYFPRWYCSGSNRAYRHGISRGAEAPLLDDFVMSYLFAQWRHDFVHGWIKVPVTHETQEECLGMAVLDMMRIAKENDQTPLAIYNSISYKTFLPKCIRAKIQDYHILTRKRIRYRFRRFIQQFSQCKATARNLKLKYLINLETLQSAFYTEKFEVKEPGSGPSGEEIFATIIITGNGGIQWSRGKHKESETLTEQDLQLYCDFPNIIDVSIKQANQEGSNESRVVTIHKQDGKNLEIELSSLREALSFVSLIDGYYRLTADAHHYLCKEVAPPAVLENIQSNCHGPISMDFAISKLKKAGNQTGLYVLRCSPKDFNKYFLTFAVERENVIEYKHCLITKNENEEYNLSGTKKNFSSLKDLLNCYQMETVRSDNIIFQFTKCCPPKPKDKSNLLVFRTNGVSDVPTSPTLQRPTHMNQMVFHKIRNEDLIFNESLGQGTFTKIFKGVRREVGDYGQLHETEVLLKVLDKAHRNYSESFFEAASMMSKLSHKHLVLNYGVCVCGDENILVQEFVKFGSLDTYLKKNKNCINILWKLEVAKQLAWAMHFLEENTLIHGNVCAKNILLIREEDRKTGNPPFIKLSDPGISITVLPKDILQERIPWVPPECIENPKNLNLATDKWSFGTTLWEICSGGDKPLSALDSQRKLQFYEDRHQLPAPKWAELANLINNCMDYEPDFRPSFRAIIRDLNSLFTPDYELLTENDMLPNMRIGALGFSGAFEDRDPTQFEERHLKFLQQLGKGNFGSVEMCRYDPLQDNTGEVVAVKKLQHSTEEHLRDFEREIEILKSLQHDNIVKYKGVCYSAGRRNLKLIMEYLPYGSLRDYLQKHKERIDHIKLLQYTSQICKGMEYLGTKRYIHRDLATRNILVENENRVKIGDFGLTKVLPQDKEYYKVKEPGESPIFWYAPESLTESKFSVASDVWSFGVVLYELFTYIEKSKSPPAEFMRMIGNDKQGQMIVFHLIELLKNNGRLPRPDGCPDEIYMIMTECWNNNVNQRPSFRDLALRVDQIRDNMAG

For assay [2], the target named is T1, Tyrosine-protein kinase JAK3 (Homo sapiens, UniProt P52333).
T1 sequence (P52333 whole entry): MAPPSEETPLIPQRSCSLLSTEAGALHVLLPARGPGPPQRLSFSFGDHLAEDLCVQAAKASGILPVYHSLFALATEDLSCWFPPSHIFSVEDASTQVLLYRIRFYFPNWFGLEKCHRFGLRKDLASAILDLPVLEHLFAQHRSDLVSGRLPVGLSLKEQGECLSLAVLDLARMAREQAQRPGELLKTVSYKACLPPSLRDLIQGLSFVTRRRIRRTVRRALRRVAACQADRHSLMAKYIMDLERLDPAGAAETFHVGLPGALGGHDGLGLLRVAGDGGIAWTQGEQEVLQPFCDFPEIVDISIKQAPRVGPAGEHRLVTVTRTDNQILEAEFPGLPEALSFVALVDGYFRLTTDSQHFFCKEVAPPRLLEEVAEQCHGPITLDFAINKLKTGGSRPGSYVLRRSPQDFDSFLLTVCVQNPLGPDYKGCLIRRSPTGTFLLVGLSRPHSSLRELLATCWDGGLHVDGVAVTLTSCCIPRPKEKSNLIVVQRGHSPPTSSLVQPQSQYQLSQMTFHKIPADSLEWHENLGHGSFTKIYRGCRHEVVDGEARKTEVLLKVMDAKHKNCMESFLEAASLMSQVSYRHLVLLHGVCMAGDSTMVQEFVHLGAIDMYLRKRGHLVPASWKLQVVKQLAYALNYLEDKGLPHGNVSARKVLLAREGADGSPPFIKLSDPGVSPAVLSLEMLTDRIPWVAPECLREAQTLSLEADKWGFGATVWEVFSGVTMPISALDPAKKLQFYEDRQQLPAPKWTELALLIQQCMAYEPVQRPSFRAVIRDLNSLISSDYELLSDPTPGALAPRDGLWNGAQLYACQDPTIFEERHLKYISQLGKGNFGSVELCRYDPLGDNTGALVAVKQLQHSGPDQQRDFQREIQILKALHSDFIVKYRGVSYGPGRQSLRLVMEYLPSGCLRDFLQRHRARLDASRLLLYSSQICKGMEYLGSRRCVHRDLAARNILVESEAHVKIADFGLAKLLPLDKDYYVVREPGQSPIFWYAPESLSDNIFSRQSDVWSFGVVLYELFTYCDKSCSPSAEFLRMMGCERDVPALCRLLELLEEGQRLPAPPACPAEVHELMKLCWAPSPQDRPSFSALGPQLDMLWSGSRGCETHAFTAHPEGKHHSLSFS
The experiment in a line: (§1) JAK Caliper Enzyme Assay at 1 mM ATP: Compounds were added to a 384-well plate. Reaction mixtures contained 10 mM HEPES, pH 7.4, 10 mM MgCl2, 0.01% BSA, 0.0005% Tween 20, 1 mM ATP and 1 μM peptide substrate. The JAK1 and TYK2 assays contained 1 μM of the IRStide peptide (5FAM-[…]) and the JAK2 and JAK3 assays contained 1 μM of the JAKtide peptide (FITC-[…]). The assays were initiated by the addition of 20 nM JAK1, 1 nM JAK2, 1 nM JAK or 1 nM TYK2 enzyme and were incubated at room temperature for three hours for JAK1, 60 minutes for JAK2, 75 minutes for JAK3 or 135 minutes for TYK2. Enzyme concentrations and incubation times were optimized for each new enzyme preps and were modified slightly over time to ensure 20% to 30% phosphorylation. The assays were stopped with 15 μL of 180 mM HEPES, pH 7.4, 20 mM EDTA, and 0.2% Coating Reagent 3. The assay plates were placed on a Caliper Life Science LC3000 instrument, and each well was sampled using appropriate separation conditions to measure the unphosphorylated and phosphorylated peptide.

Assay [3] concerns the target Non-receptor tyrosine-protein kinase TYK2 (Homo sapiens, UniProt P29597). The description is as §1.
Assay [4] deals with Tyrosine-protein kinase JAK1 (Homo sapiens, UniProt P23458). Described as §1.
Sequence of Tyrosine-protein kinase JAK1 (P23458 whole entry): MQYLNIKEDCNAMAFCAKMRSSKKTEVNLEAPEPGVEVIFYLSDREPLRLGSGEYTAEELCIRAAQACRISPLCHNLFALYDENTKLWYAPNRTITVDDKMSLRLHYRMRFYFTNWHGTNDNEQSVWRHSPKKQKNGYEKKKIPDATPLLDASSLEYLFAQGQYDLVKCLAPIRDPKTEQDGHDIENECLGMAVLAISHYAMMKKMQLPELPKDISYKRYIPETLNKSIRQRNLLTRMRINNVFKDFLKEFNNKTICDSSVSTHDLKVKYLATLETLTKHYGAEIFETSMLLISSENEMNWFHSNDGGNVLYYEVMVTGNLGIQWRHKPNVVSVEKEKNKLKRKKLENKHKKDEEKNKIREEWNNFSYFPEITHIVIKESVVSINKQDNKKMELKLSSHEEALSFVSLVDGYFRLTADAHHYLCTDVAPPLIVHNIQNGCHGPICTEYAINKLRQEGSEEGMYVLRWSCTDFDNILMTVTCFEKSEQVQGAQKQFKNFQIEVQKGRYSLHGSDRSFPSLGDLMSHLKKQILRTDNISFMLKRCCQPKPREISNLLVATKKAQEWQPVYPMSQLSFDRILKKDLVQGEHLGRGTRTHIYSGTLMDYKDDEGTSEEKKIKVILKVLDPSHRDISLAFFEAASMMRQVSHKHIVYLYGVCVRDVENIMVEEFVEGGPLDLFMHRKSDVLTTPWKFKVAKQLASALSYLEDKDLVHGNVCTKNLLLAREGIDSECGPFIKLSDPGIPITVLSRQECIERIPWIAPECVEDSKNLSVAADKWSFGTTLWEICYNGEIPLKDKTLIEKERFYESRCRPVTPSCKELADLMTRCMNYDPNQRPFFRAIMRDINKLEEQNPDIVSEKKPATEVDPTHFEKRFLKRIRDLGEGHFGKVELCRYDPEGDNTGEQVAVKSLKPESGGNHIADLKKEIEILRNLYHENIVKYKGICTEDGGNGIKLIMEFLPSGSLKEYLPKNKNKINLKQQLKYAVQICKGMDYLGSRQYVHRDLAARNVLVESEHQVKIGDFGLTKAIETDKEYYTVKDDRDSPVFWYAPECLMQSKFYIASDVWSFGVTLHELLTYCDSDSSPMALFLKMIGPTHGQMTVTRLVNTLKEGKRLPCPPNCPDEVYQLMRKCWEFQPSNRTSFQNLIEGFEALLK

Sequence of Non-receptor tyrosine-protein kinase TYK2 (P29597 whole entry): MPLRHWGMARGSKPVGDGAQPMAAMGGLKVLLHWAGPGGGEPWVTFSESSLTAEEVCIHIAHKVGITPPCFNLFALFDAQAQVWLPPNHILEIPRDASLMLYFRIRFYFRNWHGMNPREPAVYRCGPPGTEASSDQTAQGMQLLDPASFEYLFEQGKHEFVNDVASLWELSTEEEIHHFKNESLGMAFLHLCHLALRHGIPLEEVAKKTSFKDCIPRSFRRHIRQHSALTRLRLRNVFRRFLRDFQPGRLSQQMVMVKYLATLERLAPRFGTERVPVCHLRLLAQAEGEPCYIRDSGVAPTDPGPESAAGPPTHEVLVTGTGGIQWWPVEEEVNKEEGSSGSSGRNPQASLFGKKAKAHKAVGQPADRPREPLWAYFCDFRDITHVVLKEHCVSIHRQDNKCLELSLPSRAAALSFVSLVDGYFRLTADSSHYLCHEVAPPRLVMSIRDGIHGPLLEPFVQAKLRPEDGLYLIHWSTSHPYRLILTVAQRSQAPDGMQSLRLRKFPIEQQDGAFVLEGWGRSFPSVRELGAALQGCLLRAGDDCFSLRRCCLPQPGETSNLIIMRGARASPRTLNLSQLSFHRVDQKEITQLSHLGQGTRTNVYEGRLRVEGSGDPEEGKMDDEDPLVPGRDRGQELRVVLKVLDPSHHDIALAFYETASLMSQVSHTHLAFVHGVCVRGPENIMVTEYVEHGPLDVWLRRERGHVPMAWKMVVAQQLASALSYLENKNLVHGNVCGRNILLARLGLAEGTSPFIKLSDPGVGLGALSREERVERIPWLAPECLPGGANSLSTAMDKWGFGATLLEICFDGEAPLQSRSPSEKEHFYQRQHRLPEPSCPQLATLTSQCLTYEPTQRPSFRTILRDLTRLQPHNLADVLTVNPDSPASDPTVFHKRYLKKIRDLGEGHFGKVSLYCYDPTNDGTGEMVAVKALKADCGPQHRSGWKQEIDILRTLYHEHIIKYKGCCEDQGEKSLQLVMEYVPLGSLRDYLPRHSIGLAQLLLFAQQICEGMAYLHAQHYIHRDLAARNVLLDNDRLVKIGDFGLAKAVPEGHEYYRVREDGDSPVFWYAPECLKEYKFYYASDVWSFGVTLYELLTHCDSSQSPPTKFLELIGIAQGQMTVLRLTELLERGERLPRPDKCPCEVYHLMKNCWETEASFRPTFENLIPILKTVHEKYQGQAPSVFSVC

For `Cn1cc(-c2cn3nccc3c(-c3cnn([C@]4(CC#N)C[C@@H](CC#N)C4)c3)n2)cn1`, the pIC50 in assay [1] was 6.80; in assay [2], below 5.00; in assay [3] it was 7.62; in assay [4] it was 6.12.
